Measured values reported in paper PMC6655611, “The effect of amantadine on an ion channel protein from Chikungunya virus” (PLoS Neglected Tropical Diseases, 2019).

Assays:
[1] = target: T1, CHIKV 6K (GST-6K) (Chikungunya virus strain Senegal 37997, UniProt Q5XXP3); experiment: planar lipid bilayer electrophysiology; also liposome dye release and DLS fusion assay; type: biochemical; conditions: 1 uM amantadine; 2.6 ng/ul GST-6K in DPhPC/cholesterol bilayer, 500 mM KCl, 5 mM MgCl2, 10 mM HEPES pH 7.4, 24-25 C, -70 and +70 mV; direct binding not measured
T1 construct: mature 6K cut from structural polyprotein C-E3-E2-6K-E1; N-terminal GST tag kept (pGEX-6P2), E. coli Rosetta pLysS

[2] = target: the molecule itself; experiment: SEC

Row | Molecule | planar lipid bilayer electrophysiology; also liposome dye release and DLS fusion [1] | stoichiometry N [2]
1 | NC12CC3CC(CC(C3)C1)C2 [amantadine] | This clearly indicates that amantadine abolishes the ion channel activity of CHIKV 6K | –
2 | GST-6K (fusion of Chikungunya virus 6K with Glutathione S Transferase) (natural protein, Monomer MW printed as 33.5 kDa; The GST tag was not removed; also called CHIKV 6K; recombinant GST-6K; not shown: GST, N-terminal, kept) ATYYEAAAYLWNEQQPLFWLQALIPLAALIVLCNCLKLLPCCCKTLAFLAVMSIGAHTVSA | – | 6
